target: HPK1 (Homo sapiens (Human), UniProt Q92918); assay: HPK1 biochemical enzyme assay (microfluidic mobility shift assay); details: 1.5 nM HPK1, ATP 1 mM final, 30 min preincubation, 60 min at RT, Caliper EZ Reader; read-out: HPK1 1000UMATP caliper IC50
In short: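 Ten-point compound titrations (top 3 μM final) preincubated 30 min with HPK1 and substrate, then reaction started with 1 mM ATP and 1 μM substrate, 5 mM MgCl2. After 60 min at RT, reaction terminated and product measured by microfluidic mobility shift.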

HPK1, sequence (Q92918 whole entry): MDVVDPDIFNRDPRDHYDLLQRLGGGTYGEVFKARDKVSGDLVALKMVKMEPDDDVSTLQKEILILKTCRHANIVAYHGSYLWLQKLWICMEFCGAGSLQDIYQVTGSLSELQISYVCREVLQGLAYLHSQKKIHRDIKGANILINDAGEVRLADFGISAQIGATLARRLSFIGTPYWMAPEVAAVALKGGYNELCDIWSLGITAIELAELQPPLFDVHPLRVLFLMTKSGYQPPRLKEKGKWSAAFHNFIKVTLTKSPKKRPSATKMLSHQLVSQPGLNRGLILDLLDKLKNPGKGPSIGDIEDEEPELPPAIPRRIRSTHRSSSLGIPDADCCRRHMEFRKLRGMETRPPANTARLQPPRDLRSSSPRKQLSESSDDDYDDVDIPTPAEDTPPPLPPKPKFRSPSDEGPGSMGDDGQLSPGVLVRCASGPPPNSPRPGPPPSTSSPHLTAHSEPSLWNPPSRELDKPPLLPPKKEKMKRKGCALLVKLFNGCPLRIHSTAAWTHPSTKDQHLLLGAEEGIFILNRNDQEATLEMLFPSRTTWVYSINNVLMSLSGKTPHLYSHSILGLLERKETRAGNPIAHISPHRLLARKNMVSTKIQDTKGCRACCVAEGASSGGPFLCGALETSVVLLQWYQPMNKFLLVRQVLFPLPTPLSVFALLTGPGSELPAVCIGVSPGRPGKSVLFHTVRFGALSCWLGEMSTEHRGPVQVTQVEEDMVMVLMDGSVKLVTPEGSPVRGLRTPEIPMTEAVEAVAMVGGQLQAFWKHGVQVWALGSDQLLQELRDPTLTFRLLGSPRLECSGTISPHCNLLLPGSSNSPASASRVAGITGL

IC50 [nM]	Structure (SMILES)
< 100	CC(C)(O)[C@H]1CN(c2ccc(Nc3ccc(-c4cnc5cc(F)ccn45)c4c3C(=O)NC4)nc2)CCO1 [I-345, (R)-4-(7-fluoroimidazo[1,2-a]pyridin-3-yl)-7-((5-(2-(2-hydroxypropan-2-yl)morpholino)pyridin-2-yl)amino)isoindolin-1-one]
< 100	COCC1(c2ccc(Nc3ccc(-c4cnc5cc(F)ccn45)c4c3C(=O)NC4)nc2CN(C)C)CCOC1 (stereo not drawn) [I-837, 7-((6-((dimethylamino)methyl)-5-(3-(methoxymethyl)tetrahydrofuran-3-yl)pyridin-2-yl)amino)-4-(7-fluoroimidazo[1,2-a]pyridin-3-yl)isoindolin-1-one]
< 100	CN1CCN(CC2(O)CCCN(c3ccc(Nc4ccc(-c5cnc6cc(F)ccn56)c5c4C(=O)NC5)nc3)C2)CC1 (stereo not drawn) [I-388, 4-(7-fluoroimidazo [1,2-a]pyridin-3-yl)-7-((5-(3-hydroxy-3-((4-methylpiperazin-1-yl)methyl)piper-idin-1-yl)pyridin-2-yl)amino)isoin-dolin-1-one]
< 100	CC(C)(O)[C@@H]1CN(c2ccc(Nc3ccc(-c4cnc5cccnn45)c4c3C(=O)NC4)nc2)CCO1 [I-474, 7-[[5-[(2S)-2-(1-hydroxy-1-methyl-ethyl)morpholin-4-yl]-2-pyridyl]amino]4-imidazo[1,2-b]pyridazin-3-yl-isoindolin-1-one]
< 100	CN(C)Cc1nc(Nc2ccc(-c3cnc4cc(C(F)F)ccn34)c3c2C(=O)NC3)ccc1C1CCOC1 (stereo in doubt) [I-753, (R)-4-(7-(difluoromethyl)-imidazo[1,2-a]pyridin-3-yl)-7-((6-((dimethylamino)-methyl)-5-(tetrahydrofuran-3-yl)pyridin-2-yl)amino)isoin-dolin-1-one]
< 100	O=C1NCc2c(-c3cnc4cc(F)ccn34)ccc(Nc3ccc(C4CCOC4)c(N4CCNCC4)n3)c21 (stereo in doubt) [I-772, (S)-4-(7-fluoroimidazo [1,2-a]pyridin-3-yl)-7-((6-(piperazin-1-yl)-5-(tetrahydrofuran-3-yl)pyridin-2-yl)amino)isoin-dolin-1-one]
< 100	O=C1NCc2c(-c3cnc4cnccn34)ccc(Nc3ccc(N4CCOCC4)cn3)c21 [I-153, 4-imidazo[1,2-a]pyrazin-3-yl-7-[(5-morpholino-2-pyridyl)amino] isoindolin-1-one]
< 100	CN(C)Cc1nc(Nc2ccc(-c3cnc4cc(F)ccn34)c3c2C(=O)NC3)ccc1N1CCOCC12CC2 [I-525, 7-[[6-[(dimethylamino)-methyl]-5-(7-oxa-4-azaspiro[2.5]octan-4-yl)-2-pyridyl]amino]-4-(7-fluoroimidazo [1,2-a]pyridin-3-yl)isoindolin-1-one]
100 to 1000	CN1CCCc2c(-c3ccc(Nc4ccc(N5CCNCC5)cn4)c4c3CNC4=O)ccnc21 [I-118, 4-(8-methyl-6.7-dihydro-5H-1,8-naphthyridin-4-yl)-7-[(5-piperazin-1-yl-2-pyridyl)amino] isoindolin-1-one]
< 100	Cn1ccc2c(-c3ncc(Nc4ccc(N5CCC[C@@](O)(CN6CCOCC6)C5)cn4)c4c3CNC4=O)ccnc21 (single isomer, unassigned) [I-673]
< 100	O=C1NCc2c(-c3cnc4cc(F)ccn34)ccc(Nc3cccc(N4CCC5CNCC54)n3)c21 (stereo not drawn) [I-493]
< 100	CN(C)CCN1CCC(c2ccc(Nc3ccc(-c4cnc5cc(F)ccn45)c4c3C(=O)NC4)nc2)CC1=O (stereo not drawn) [I-406, 7-((5-(1-(2-(dimethylami-no)ethyl)-2-oxopiperidin-4-yl)pyridin-2-yl)amino)-4-(7-fluoroimidazo [1,2-a]pyridin-3-yl)isoindolin-1-one]
< 100	O=C1NCc2c(-c3cnc4cc(F)ccn34)ccc(Nc3ccc([C@@H]4CCOC4)c(CN4CC[C@@H](O)C4)n3)c21 [I-784, 4-(7-fluoroimidazo [1,2-a]pyridin-3-yl)-7-((6-(((R)-3-hydroxypyrroli-din-1-yl)methyl)-5-((S)-tetrahydrofuran-3-yl)pyridin-2-yl)amino)isoin-dolin-1-one]
< 100	Cn1ccc2c(-c3ncc(Nc4cccc(N5C[C@@H](N)CC5=O)n4)c4c3CNC4=O)ccnc21 [I-692, (S)-7-((6-(4-amino-2-oxopyrrolidin-1-yl)pyridin-2-yl)amino)-4-(1-methyl-1H-pyrrolo[2,3-b]pyridin-4-yl)-2,3-dihydro-1H-pyrrolo[3,4-c]pyridin-1-one]
100 to 1000	Cc1cc(-c2ccc(Nc3ccc(N4CCN(C)CC4)cn3)c3c2CNC3=O)c2cc[nH]c2n1 [I-77, 7-[[5-(4-methylpiperazin-1-yl)-2-pyridyl]amino]-4-(6-methyl-1H-pyrrolo[2,3-b]pyridin-4-yl)isoindolin-1-one]
< 100	Cn1ccc2c(-c3ncc(Nc4ccc(N5CCC[C@](O)(CN6CCOCC6)C5)cn4)c4c3CNC4=O)ccnc21 (single isomer, unassigned) [I-674]

IC50 [nM]	Structure (SMILES)
< 100	O=C1NCc2c(-c3cnc4c(F)cccn34)ncc(Nc3ccc(N4CC[C@@H](F)[C@H](O)C4)cn3)c21 [I-652, 7-((5-((3R,4R)-4-fluoro-3-hydroxypiperidin-1-yl)pyridin-2-yl)amino)-4-(8-fluoroimidazo [1,2-a]pyridin-3-yl)-2,3-dihydro-1H-pyrrolo[3,4-c]pyridin-1-one]
< 100	Cn1ccc2c(-c3ccc(Nc4ccc(N5CCC[C@H](N)C5)cn4)c4c3CNC4=O)ccnc21 [I-94, 7-[[5-[(3S)-3-amino-1-piperipyl]-2-pyridyl]amino]-4-(l-methylpyrrolo [2,3-b]pyridin-4-yl)isoindolin-1-one]
< 100	O=C1NCc2c(-c3cnc4cnccn34)ccc(Nc3ccc(N4CCC[C@@H](O)C4)cn3)c21 [I-171]
< 100	O=C1NCc2c(-c3cnc4cc(C(F)F)ccn34)ccc(Nc3ccc(C4(O)CCOCC4)cn3)c21 [I-608, 4-(7-(difluoromethyl)-imidazo[1,2-a]pyridin-3-yl)-7-((5-(4-hydroxytetra-hydro-2H-pyran-4-yl)pyridin-2-yl)amino)isoin-dolin-1-one]
< 100	C[C@@H]1C[C@H](O)CCN1c1ccc(Nc2ccc(-c3cnc4cnccn34)c3c2C(=O)NC3)nc1 [I-350, 7-((5-((2R,4R]-4-hydroxy-2-methylpiperidin-1-yl)pyridin-2-yl)amino)-4-(imidazo[1,2-a]pyrazin-3-yl)isoindolin-1-one]
< 100	CN1CCN(c2ccc(Nc3ccc(-c4nnc5ccccn45)c4c3C(=O)NC4)nc2)CC1 [I-85, 7-[[5-(4-methylpiperazin-1-yl)-2-pyridyl]amino]-4-([1,2,4]triazolo [4,3-a]pyridin-3-yl)isoindolin-1-one]
< 100	COC[C@@H]1CN(c2ccc(Nc3ccc(-c4cnc5c(F)c(C)ccn45)c4c3C(=O)NC4)nc2)CCO1 [I-579, (S)-4-(8-fluoro-7-methylimidazo [1,2-a]pyridin-3-yl)-7-((5-(2-(methoxymeth-yl)morpho-lino)pyridin-2-yl)amino)isoin-dolin-1-one]
< 100	CN1CCN(c2ccc(Nc3cnc(-c4ccnc5[nH]ccc45)c4c3C(=O)NC4)nc2)CC1 [I-20, 7-[[5-(4-methylpiperazin-1-yl)-2-pyridyl]amino]-4-(1H-pyrrolo[2,3-b]pyridin-4-yl)-2,3-dihydropyrrolo [3,4-c]pyridin-1-one]
< 100	Cc1ccn2c(-c3ccc(Nc4ccc(N5CC[C@@H](F)[C@H](O)C5)cn4)c4c3CNC4=O)cnc2c1F [I-583, 7-((5-((3R,4R]-4-fluoro-3-hydroxypiperidin-1-yl)pyridin-2-yl)amino)-4-(8-fluoro-7-methylimidazo [1,2-a]pyridin-3-yl)isoindolin-1-one]
< 100	O=C1NCc2c(-c3cnn4c3CCCC4)ccc(Nc3ccc(N4CCC(O)CC4)cn3)c21 [I-284, 7-((5-(4-hydroxy-piperidin-1-yl)pyridin-2-yl)amino)-4-(4,5,6,7-tetrahydropyra-zolo[1,5-a]pyridin-3-yl)isoindolin-1-one]
< 100	Cc1ccn2c(-c3ccc(Nc4ccc(N5CCO[C@@H](C(C)(C)O)C5)cn4)c4c3CNC4=O)cnc2c1F [I-487, 4-(8-fluoro-7-methyl-imidazo[1,2-a]pyridin-3-yl)-7-[[5-[(2R)-2-(1-hydroxy-1-methyl-ethyl)morpholin-4-yl]-2-pyridyl]amino]isoindolin-1-one]
< 100	CN1CCN(c2ccc(Nc3cnc(-c4cnn5c4CCCC5)c4c3C(=O)NC4)nc2)CC1 [I-255, 7-((5-(4-methylpiperazin-1-yl)pyridin-2-yl)amino)-4-(4,5,6,7-tetrahydropyra-zolo[1,5-a]pyridin-3-yl)-2,3-dihydro-1H-pyrrolo[3,4-c]pyridin-1-one]
< 100	Cc1ccc2ncc(-c3ccc(Nc4ccc(N5CCNCC5)cn4)c4c3CNC4=O)n2c1 [I-86, 4-(6-methylimidazo [1,2-a]pyridin-3-yl)-7-[(5-piperazin-1-yl-2-pyridyl)amino] isoindolin-1-one]
< 100	O=C1NCc2c(-c3cnn4c3CCCC4)ccc(Nc3ccc(N4CCC[C@]5(CCNC5=O)C4)cn3)c21 [I-446, (S)-7-(6-((3-oxo-7-(4,5,6,7-tetrahydropyra-zolo[1,5-a]pyridin-3-yl)isoindolin-4-yl)amino)pyri-din-3-yl)-2,7-diazaspiro[4.5] decan-1-one]
< 100	Cc1ccn2c(-c3ccc(Nc4ccc(N5CCN(C)CC5)cn4)c4c3CNC4=O)cnc2c1 [I-64, 4-(7-methylimidazo [1,2-a]pyridin-3-yl)-7-[[5-(4-methylpiperazin-1-yl)-2-pyridyl]amino] isoindolin-1-one]

Structure (SMILES)	IC50 [nM]
COCC1CN(c2ccc(Nc3ccc(-c4cnc5cc(F)ccn45)c4c3C(=O)NC4)nc2CN(C)C)CCO1 (stereo in doubt) [I-712, (S)-7-((6-((dimethylamino)-methyl)-5-(2-(methoxymeth-yl)morpho-lino)pyridin-2-yl)amino)-4-(7-fluoroimidazo [1,2-a]pyridin-3-yl)isoindolin-1-one]	< 100
Cc1ccc2c(-c3ccc(Nc4ccc(N5CCNCC5)cn4)c4c3CNC4=O)cnn2c1 [I-89, 4-(6-methylpyrazolo[1,5-a]pyridin-3-yl)-7-[(5-piperazin-1-yl-2-pyridyl)amino] isoindolin-1-one]	< 100
